Test results reported in US10093630B2, “Pyrazole compounds and methods of making and using same” (ABIDE THERAPEUTICS, INC., priority 2014, dated 2018).
Where two headings read alike, the source gives them in different places.

Experiments:
Test in all cases: In vitro competitive activity-based protein profiling (gel-based, FP-Rh or HT-01 probe)
Assay type in all cases: biochemical
[1] = target: T1, MAGL (Mus musculus, UniProt O35678); details: for inhibition at 1 µM: 1 μM inhibitor; for inhibition at 10 µM: 10 μM inhibitor; for IC50: mouse brain membrane fraction or cell lysates, 30 min preincubation at 37° C., read-out: Mouse (IC50 value, nM) MAGL
T1 construct: Proteomes (mouse brain membrane fraction or cell lysates); from tissue; host or cells: mouse brain membrane fraction (or cell lysates, not specified)
T1 sequence (O35678 1-303): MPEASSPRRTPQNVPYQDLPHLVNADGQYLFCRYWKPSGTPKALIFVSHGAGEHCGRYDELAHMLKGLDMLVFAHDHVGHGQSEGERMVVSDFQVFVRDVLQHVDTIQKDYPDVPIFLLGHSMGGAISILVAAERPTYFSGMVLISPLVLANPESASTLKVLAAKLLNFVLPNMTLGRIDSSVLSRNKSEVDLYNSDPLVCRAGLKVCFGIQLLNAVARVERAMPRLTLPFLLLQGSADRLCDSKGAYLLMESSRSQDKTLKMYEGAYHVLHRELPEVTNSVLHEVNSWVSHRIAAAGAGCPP
Procedure: (§1) In Vitro Competitive Activity-Based Protein Profiling.
(§2) Proteomes (mouse brain membrane fraction or cell lysates) (50 μL, 1.0 mg/mL total protein concentration) were preincubated with varying concentrations of inhibitors at 37° C. After 30 min, FP-Rh or HT-01 ([…], 50 μM in DMSO) was added and the mixture was incubated for another 30 min at 37° C. Reactions were quenched with SDS loading buffer (15 μL—4×) and run on SDS-PAGE. Following gel imaging, serine hydrolase activity was determined by measuring fluorescent intensity of gel bands corresponding to MAGL, ABHD6, FAAH, and PLA2G7 using ImageJ 1.43u software.

[2] = target: T2, PLA2G7 (Mus musculus, UniProt Q60963); details: for inhibition at 1 µM: 1 μM inhibitor, read-out: % Inhibition at 1 μM, D = PLA2G7; for inhibition at 10 µM: 10 μM inhibitor, read-out: % Inhibition at 10 μM, D = PLA2G7; for IC50: mouse brain membrane fraction or cell lysates, 30 min preincubation at 37° C.
T2 construct: Proteomes (mouse brain membrane fraction or cell lysates); from tissue; host or cells: mouse brain membrane fraction (or cell lysates, not specified)
T2 sequence (Q60963 22-440): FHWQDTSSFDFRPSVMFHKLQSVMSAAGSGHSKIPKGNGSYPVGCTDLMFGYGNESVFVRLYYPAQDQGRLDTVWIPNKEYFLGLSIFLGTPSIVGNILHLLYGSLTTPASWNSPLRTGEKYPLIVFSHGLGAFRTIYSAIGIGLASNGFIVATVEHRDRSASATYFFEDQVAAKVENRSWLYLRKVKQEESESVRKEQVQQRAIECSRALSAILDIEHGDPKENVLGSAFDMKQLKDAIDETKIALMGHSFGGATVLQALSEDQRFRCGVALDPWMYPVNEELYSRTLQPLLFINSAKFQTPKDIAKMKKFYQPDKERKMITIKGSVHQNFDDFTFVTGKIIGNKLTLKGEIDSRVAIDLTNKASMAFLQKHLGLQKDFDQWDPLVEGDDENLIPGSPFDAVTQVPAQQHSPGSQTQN
Procedure: as §1, §2

[3] = target: T3, FAAH (Mus musculus, UniProt O08914); details: for inhibition at 1 µM: 1 μM inhibitor, read-out: % Inhibition at 1 μM, B = FAAH; for inhibition at 10 µM: 10 μM inhibitor, read-out: % Inhibition at 10 μM, B = FAAH; for IC50: mouse brain membrane fraction or cell lysates, 30 min preincubation at 37° C., read-out: Mouse (IC50 value, nM) FAAH
T3 construct: Proteomes (mouse brain membrane fraction or cell lysates); from tissue; host or cells: mouse brain membrane fraction (or cell lysates, not specified)
T3 sequence (O08914 1-579): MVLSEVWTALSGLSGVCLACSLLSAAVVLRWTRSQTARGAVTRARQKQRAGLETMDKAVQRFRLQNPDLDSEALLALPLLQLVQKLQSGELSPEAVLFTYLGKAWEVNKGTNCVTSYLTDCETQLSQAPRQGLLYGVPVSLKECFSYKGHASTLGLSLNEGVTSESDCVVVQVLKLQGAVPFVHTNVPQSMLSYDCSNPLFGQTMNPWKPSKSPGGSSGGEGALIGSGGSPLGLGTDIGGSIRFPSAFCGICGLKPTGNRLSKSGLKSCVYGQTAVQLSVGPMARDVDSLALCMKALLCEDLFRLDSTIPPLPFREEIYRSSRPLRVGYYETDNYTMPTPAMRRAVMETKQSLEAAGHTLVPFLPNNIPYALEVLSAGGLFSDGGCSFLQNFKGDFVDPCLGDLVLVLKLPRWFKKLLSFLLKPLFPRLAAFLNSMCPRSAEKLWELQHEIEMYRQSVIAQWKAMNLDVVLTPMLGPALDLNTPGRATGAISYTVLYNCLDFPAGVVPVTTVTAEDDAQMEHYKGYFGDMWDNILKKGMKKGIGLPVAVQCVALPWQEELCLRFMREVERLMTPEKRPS
Procedure: as §1, §2

[4] = target: T4, ABHD6 (Mus musculus, UniProt Q8R2Y0); details: for inhibition at 1 µM: 1 μM inhibitor, read-out: % Inhibition at 1 μM, C = ABHD6; for inhibition at 10 µM: 10 μM inhibitor, read-out: % Inhibition at 10 μM, C = ABHD6; for IC50: mouse brain membrane fraction or cell lysates, 30 min preincubation at 37° C., read-out: Mouse (IC50 value, nM) ABHD6
T4 construct: Proteomes (mouse brain membrane fraction or cell lysates); from tissue; host or cells: mouse brain membrane fraction (or cell lysates, not specified)
T4 sequence (Q8R2Y0 1-336): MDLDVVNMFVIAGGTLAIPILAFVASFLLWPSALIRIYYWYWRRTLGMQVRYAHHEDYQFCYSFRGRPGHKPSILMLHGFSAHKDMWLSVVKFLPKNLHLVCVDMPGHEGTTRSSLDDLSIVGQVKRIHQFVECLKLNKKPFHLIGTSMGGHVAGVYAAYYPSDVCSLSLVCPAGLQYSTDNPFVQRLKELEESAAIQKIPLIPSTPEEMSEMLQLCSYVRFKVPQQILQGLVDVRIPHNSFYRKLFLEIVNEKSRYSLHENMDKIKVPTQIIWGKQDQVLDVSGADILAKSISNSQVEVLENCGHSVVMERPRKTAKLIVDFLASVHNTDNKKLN
Procedure: as §1, §2

SMILES	inhibition at 1 µM [1] [%]	inhibition at 10 µM [1] [%]	inhibition at 1 µM [2] [%]	inhibition at 10 µM [2] [%]	inhibition at 1 µM [3] [%]	inhibition at 10 µM [3] [%]	inhibition at 1 µM [4] [%]	inhibition at 10 µM [4] [%]	IC50 [1] [nM]	IC50 [2] [nM]	IC50 [3] [nM]	IC50 [4] [nM]	inhibition at 1 µM ([1]; gel-based competitive ABPP) [%]	inhibition at 10 µM ([1]; gel-based competitive ABPP) [%]	inhibition at 1 µM ([2]; gel-based competitive ABPP) [%]	inhibition at 10 µM ([2]; gel-based competitive ABPP) [%]	inhibition at 1 µM ([3]; gel-based competitive ABPP) [%]	inhibition at 10 µM ([3]; gel-based competitive ABPP) [%]	inhibition at 1 µM ([4]; gel-based competitive ABPP) [%]	inhibition at 10 µM ([4]; gel-based competitive ABPP) [%]
N#Cc1cnn(C(=O)NCCCCCc2ccccc2)c1 [Example 39, 4-Cyano-N-(5-phenylpentyl)-1H-pyrazole-1-carboxamide]	< 25	25 to 75	< 25	< 25	< 25	> 75	< 25	< 25	–	–	–	–	–	–	–	–	–	–	–	–
N#Cc1cnn(C(=O)NCCCCc2ccccc2)c1 [Example 36, 4-Cyano-N-(4-phenylbutyl)-1H-pyrazole-1-carboxamide]	< 25	25 to 75	< 25	< 25	25 to 75	> 75	< 25	25 to 75	–	–	–	–	–	–	–	–	–	–	–	–
O=C(N1CCN(Cc2ccc(-c3ccccc3)cc2Cl)CC1)n1cc(Cl)cn1 [Example 139, (4-chloro-1H-pyrazol-1-yl)(4-((3-chlorobiphenyl-4-yl)methyl)piperazin-1-yl)methanone]	> 75	> 75	< 25	> 75	> 75	> 75	> 75	> 75	< 100	> 1000	< 100	100 to 1000	–	–	–	–	–	–	–	–
Cc1cnn(C(=O)Nc2ccc3ccccc3c2)c1 [Example 41, 4-Methyl-N-(naphthalen-2-yl)-1H-pyrazole-1-carboxamide]	< 25	> 75	< 25	< 25	< 25	< 25	< 25	< 25	–	–	–	–	–	–	–	–	–	–	–	–
CCN(Cc1ccccc1C)C(=O)n1cc(Cl)cn1 [Example 132, 4-Chloro-N-(2-methylbenzyl)-N-ethyl-1H-pyrazole-1-carboxamide]	< 25	–	< 25	–	< 25	–	< 25	–	–	–	–	–	–	–	–	–	–	–	–	–
O=C(N1CCN(Cc2cccc(Cl)c2)CC1)n1cc(Cl)cn1 [Example 225, (4-Chloro-1H-pyrazol-1-yl)(4-(3-chlorobenzyl)piperazin-1-yl)methanone]	> 75	–	< 25	–	> 75	–	> 75	–	< 100	> 1000	< 100	100 to 1000	–	–	–	–	–	–	–	–
O=C(N1CCN(Cc2ccccc2)CC1)n1cc(C(F)(F)F)cn1 [Example 152, (4-Benzylpiperazin-1-yl)(4-(trifluoromethyl)-1H-pyrazol-1-yl)methanone]	> 75	> 75	> 75	> 75	> 75	> 75	> 75	> 75	–	–	–	–	–	–	–	–	–	–	–	–
CS(=O)(=O)N1CCN(C(=O)n2cc(C#N)cn2)CC1 [Example 174, 1-(4-(Methylsulfonyl)piperazine-1-carbonyl)-1H-pyrazole-4-carbonitrile]	< 25	25 to 75	> 75	> 75	< 25	25 to 75	> 75	> 75	–	–	–	–	–	–	–	–	–	–	–	–
CCN(Cc1cccc(OC)c1)C(=O)n1cc(C(F)(F)F)cn1 [Example 250, N-Ethyl-N-(3-methoxybenzyl)-4-(trifluoromethyl)-1H-pyrazole-1-carboxamide]	–	–	–	–	–	–	–	–	> 1000	–	< 100	> 1000	> 75	> 75	< 25	> 75	> 75	> 75	25 to 75	> 75
O=C(c1ccccc1)N1CCCN(C(=O)n2cc(C(F)(F)F)cn2)CC1 [Example 158, (4-Benzoyl-1,4-diazepan-1-yl)(4-(trifluoromethyl)-1H-pyrazol-1-yl)methanone]	> 75	> 75	> 75	> 75	> 75	> 75	> 75	> 75	> 1000	> 1000	> 1000	> 1000	–	–	–	–	–	–	–	–
CCN(Cc1ccc(OC)cc1)C(=O)n1cc(C(F)(F)F)cn1 [Example 259, N-Ethyl-N-(4-methoxybenzyl)-4-(trifluoromethyl)-1H-pyrazole-1-carboxamide]	–	–	–	–	–	–	–	–	> 1000	> 1000	< 100	> 1000	> 75	–	< 25	–	> 75	–	< 25	–
Cc1ccccc1-c1cnn(C(=O)N2CCN(C(c3ccc(Cl)cc3)c3ccc(Cl)cc3)CC2)c1 [Example 122, (4-(Bis(4-chlorophenyl)methyl)piperazin-1-yl)(4-(o-tolyl)-1H-pyrazol-1-yl)methanone]	–	25 to 75	25 to 75	> 75	–	< 25	< 25	> 75	–	–	–	–	–	–	–	–	–	–	–	–
Cc1ccc(N2CCN(C(=O)n3cc(C(F)(F)F)cn3)CC2)cc1 [Example 232, (4-p-Tolylpiperazin-1-yl)(4-(trifluoromethyl)-1H-pyrazol-1-yl)methanone]	> 75	> 75	> 75	> 75	> 75	> 75	> 75	> 75	–	–	–	–	–	–	–	–	–	–	–	–
